The source of these data is patent publication US20250289827A1, “MORPHIC FORMS OF A MUTANT BRAF DEGRADER AND METHODS OF MANUFACTURE THEREOF” (C4 THERAPEUTICS, INC., priority 2022, published 2025).

Data set [1] in a line: Compression simulation experiments. Type of data set: physicochemical. The following applies: for Comments: color / Comments: crystallinity / XRPD: compressed 5 minutes. On the procedure: About 20 mg of Compound 1 Form B was compressed for 5 minutes under 2 MPa and 10 MPa with a hydraulic press. Potential form change and degree of crystallinity were evaluated by XRPD.
The nature of data set [2]: BCS / DCS classification. As to conditions: initial studies. An excerpt:
Initial studies indicate Compound 1 is a Biopharmaceutics Classification System (BCS) Class II and a Developability Classification System (DCS) Class IIb molecule.

For data set [3], the system named is HT-29 human colorectal cancer cell derived xenografts (CDX). Nature of the data set: Efficacy in HT-29 CDX model of colorectal cancer. It counts as in vivo, BALB/c nude mice. An excerpt: The endpoint for each individual mouse was reached when the mouse weight decreased by 20%.

As to `CCN(C)S(=O)(=O)Nc1ccc(F)c(Oc2ccc3ncn([C@H]4COC5(CCN(C(=O)CC6(O)CCN(c7cc8c(cc7F)c(N7CCC(=O)NC7=O)nn8C)CC6)CC5)C4)c(=O)c3c2)c1C#N` [Compound 1 Form B], the “Morphic form stability under compression” value in data set [1] (2 MPa and 10 MPa) is on record as “excellent morphic form stability”. In data set [1] (2 MPa), the “Comments: color” value was “Slight discoloration”, the “Comments: crystallinity” value was “Slight decrease in crystallinity;” and the XRPD result was “Form B”. Also, in data set [1] (10 MPa), the “Comments: color” value is listed as “Slight discoloration”, the “Comments: crystallinity” value is “Slight decrease in crystallinity;” and the XRPD entry is given as “Form B”.
For `CCN(C)S(=O)(=O)Nc1ccc(F)c(Oc2ccc3ncn([C@H]4COC5(CCN(C(=O)CC6(O)CCN(c7cc8c(cc7F)c(N7CCC(=O)NC7=O)nn8C)CC6)CC5)C4)c(=O)c3c2)c1C#N` [Compound 1, (3R)-3-[6-[2-cyano-3-[[ethyl(methyl)sulfamoyl]amino]-6-fluorophenoxy]-4-oxoquinazolin-3-yl]-8-[2-[1-[3-(2,4-dioxo-1,3-diazinan-1-yl)-5-fluoro-1-methylindazol-6-yl]-4-hydroxypiperidin-4-yl]acetyl]-1-oxa-8-azaspiro[4.5]decane], in data set [2], the “Biopharmaceutics Classification System (BCS) class” value was “Class II” and the “Developability Classification System (DCS) class” value was “Class IIb”. In addition, the “Tumor response at end of study” value in data set [3] (10 mg/kg PO BID plus cetuximab 11 mg/kg IP Q3D) is recorded as “tumor regression”. In data set [3] (10 mg/kg PO BID, without cetuximab), the “Tumor response at end of study” value is listed as “tumor regression”.
